PubChem BioAssay (NCI)
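Protocol summary: plate cells (96-well), add compound at 5 concentrations, incubate 48 h, interpolate endpoints linearly. At the GI50, growth is halved. Definition used: TGI = concentration required for complete inhibition of growth.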

Tests used:
Experiment in all cases: NCI-60 cell line screen, 48 h
EKVX NSCLC = tested on: EKVX NSCLC
NCI-H226 lung = tested on: NCI-H226 lung
HCT-15 colon = tested on: HCT-15 colon
MDA-MB-231 breast = tested on: MDA-MB-231 breast
HS 578T breast = tested on: HS 578T breast
OVCAR-8 ovarian = tested on: OVCAR-8 ovarian
UO-31 renal = tested on: UO-31 renal
LOX IMVI melanoma = tested on: LOX IMVI melanoma
HOP-92 NSCLC = tested on: HOP-92 NSCLC
SK-MEL-2 melanoma = tested on: SK-MEL-2 melanoma

Row | Structure (SMILES) | GI50 (EKVX NSCLC) [µM] | TGI (EKVX NSCLC) [µM] | GI50 (NCI-H226 lung) [µM] | TGI (NCI-H226 lung) [µM] | GI50 (HCT-15 colon) [µM] | TGI (HCT-15 colon) [µM] | GI50 (MDA-MB-231 breast) [µM] | TGI (MDA-MB-231 breast) [µM] | GI50 (HS 578T breast) [µM] | TGI (HS 578T breast) [µM] | GI50 (OVCAR-8 ovarian) [µM] | TGI (OVCAR-8 ovarian) [µM] | GI50 (UO-31 renal) [µM] | TGI (UO-31 renal) [µM] | GI50 (LOX IMVI melanoma) [µM] | TGI (LOX IMVI melanoma) [µM] | GI50 (HOP-92 NSCLC) [µM] | TGI (HOP-92 NSCLC) [µM] | GI50 (SK-MEL-2 melanoma) [µM] | TGI (SK-MEL-2 melanoma) [µM]
1 | Cc1cc(-c2ccco2)cc(C)c1/C=C/c1cncc(-c2nn[nH]n2)c1 | > 25 | > 25 | > 25 | > 25 | > 25 | > 25 | > 25 | > 25 | > 25 | > 25 | > 25 | > 25 | > 25 | > 25 | > 25 | > 25 | > 25 | > 25 | > 25 | > 25
2 | CN1CC[C@]23c4c5ccc(O)c4OC2c2[nH]ncc2C[C@H]3[C@H]1C5 (stereo partly specified) | – | > 100 | – | > 100 | – | > 100 | – | > 100 | – | > 100 | – | > 100 | – | > 100 | – | > 100 | – | > 100 | – | > 100
3 | COc1cccc(/C=C2/S/C(=N/Nc3nc(C)c(C(C)=O)s3)NC2=O)c1O | – | 84.4 | – | > 100 | – | > 100 | – | 44.8 | – | > 100 | – | > 100 | – | 51.3 | – | > 100 | – | 91.7 | – | 48
4 | COc1cccc(N2C(=O)C3CC(CC(C)(C)C)c4c([nH]c5ccccc45)C3C2=O)c1 (stereo unspecified) | – | > 10 | – | > 10 | – | > 10 | – | > 10 | – | 9.87 | – | > 10 | – | – | – | > 10 | – | > 10 | – | > 10
5 | COC(=O)C1=Nc2ccc(F)cc2/C1=C/c1sc(=S)[nH]c1O | 0.987 | > 100 | 0.959 | 10.3 | 0.0663 | > 100 | 0.358 | 4.26 | 0.0518 | 21.6 | 0.202 | 37.7 | 0.457 | 5.14 | 0.0943 | > 32.6 | 1.19 | 14.4 | 0.806 | 41
6 | COc1ncc2cc1NS(=O)(=O)c1cccc(c1)C(=O)NCC1=CC=C(S1)c1ncnc3c1SC2=C3C | 0.234 | 2.54 | 0.47 | 2.6 | 0.254 | 1.36 | 0.139 | 12.8 | 0.0247 | 0.355 | 0.58 | 15.5 | 0.0733 | 1.7 | 0.0902 | 0.499 | 0.0526 | 0.667 | 0.225 | 1.15
7 | CCN(CC)C(=O)CCCCCn1c2ccccc2c2c3c(c4c5ccccc5[nH]c4c21)C(=O)N(O)C3=O | 10.9 | 58.4 | 14.1 | 54.4 | 4.07 | > 100 | 5.52 | 82.5 | 5.05 | > 100 | 4.1 | 28.3 | 1.72 | 4.22 | 1.13 | 2.88 | 2.73 | 7.68 | 3.38 | 12.1
8 | CCC1=C(c2ccc(OC)cc2)CC[C@]2(CCNC2=O)[C@@H]1C | – | > 86.7 | – | > 100 | – | > 88.8 | – | > 100 | – | 76.2 | – | > 100 | – | 66.3 | – | 60.5 | – | > 100 | – | 52.4
9 | Cc1cc2c3c(c1)CCCN3CCC2 | – | > 10 | – | > 10 | – | > 10 | – | > 10 | – | > 10 | – | > 10 | – | > 10 | – | > 10 | – | > 10 | – | > 10
10 | CC(C)C/C(=N\NC(=O)c1ccncc1)c1cc(Cl)ccc1O | 0.312 | 25.3 | 0.848 | 22.5 | 0.0938 | 98.9 | 0.622 | > 46 | 14.8 | > 87.1 | 0.255 | > 49.2 | 0.211 | 18.6 | 0.178 | – | 0.306 | 28.6 | 1.87 | 31.9
11 | O=C(/C=C/c1cccs1)c1ccc([N+](=O)[O-])cc1 | – | > 100 | – | > 100 | – | > 100 | – | > 100 | – | > 100 | – | > 100 | – | > 100 | – | > 100 | – | – | – | > 100
12 | CCN(CC)Cc1cc(Nc2cc(C(F)(F)F)c(C#N)c3nc4ccccc4n23)ccc1O | 0.526 | 8.39 | 1.34 | 10.4 | 0.78 | 2.76 | 1.95 | 5.33 | 2.39 | 12.1 | 2.68 | 12.6 | 1.12 | 3.1 | 2.33 | 13.1 | 0.59 | 3.48 | 1.35 | 7.81
13 | N#Cc1cccc(C2C3=C(COC3=O)N(CCO)c3cc4c(cc32)CCC4)c1 (stereo unspecified) | 0.259 | > 50 | 1.67 | > 50 | 0.127 | > 50 | 0.22 | – | 0.141 | > 13.5 | 0.237 | > 50 | 0.165 | > 31.7 | 0.292 | > 44.9 | 0.871 | 35.3 | 0.319 | > 44.5
14 | Oc1ccc(-c2[nH]c3ccccc3c2-c2nc3ccccc3o2)cc1 | 4.76 | 21.9 | 3.14 | 15.3 | 2.97 | 13.1 | 1.47 | 5.64 | 2.47 | 18.4 | 4.57 | 20.9 | 0.893 | 13.9 | 1.9 | 5.72 | 2.73 | 15.9 | 3.03 | 12.3
15 | COc1cc2c(cc1OC)C(SC)C(=O)N(Cc1cccc(OC)c1OC)CC2 (stereo unspecified) | – | > 100 | – | 26.8 | – | > 74 | – | > 100 | – | > 24.6 | – | 70.9 | – | 70 | – | > 83.3 | – | 16.9 | – | 19.1
16 | O=C(Nc1cccc(-n2cc(-c3ccncc3)c(-c3ccc(O)c(Cl)c3)n2)c1)Nc1ccc(Cl)c(Cl)c1 | – | – | 3.01 | 9.53 | 1.63 | 8.52 | 1.85 | > 100 | 1.4 | 7.1 | 1.65 | 5.61 | 2.67 | 8.34 | 1.38 | 5.06 | 0.763 | 3.38 | – | –
17 | O=C(/C=C/c1ccc(Cl)cc1)c1ccc(Cl)s1 | – | > 100 | – | – | – | > 100 | – | > 100 | – | > 100 | – | > 100 | – | > 100 | – | 26.2 | – | > 100 | – | –
18 | CCCCOCCOCCOC1=C(Cl)C(=O)c2c(O)ccc(O)c2C1=O | – | 6.96 | – | 3.21 | – | 1.11 | – | 1.32 | – | 5.86 | – | 7.43 | – | 2.68 | – | 1.75 | – | 0.437 | – | –
19 | CC(=O)c1sc2c(c1O)c(=O)n(-c1ccccc1)c(=S)n2-c1ccccc1 | – | – | – | > 100 | – | > 100 | – | > 100 | – | > 100 | – | > 100 | – | > 100 | – | > 100 | – | > 100 | – | > 100
20 | CC1(C)N=C(N)N=C(N)N1c1ccc(OCCCCNC(=O)Nc2cccc(S(=O)(=O)F)c2)c(Cl)c1 | – | – | 7.95 | > 100 | 10.6 | > 100 | 6.57 | > 100 | 19.3 | > 100 | 4.28 | > 100 | 40.5 | > 100 | 0.491 | > 100 | 27.1 | > 100 | 13.6 | > 100
21 | CCN(CCNc1ccc(C)c2sc3cc(Cl)ccc3c(=O)c12)CC(C)(C)O | 3.41 | 21.6 | 14 | 30.7 | 3.3 | 12 | 2.31 | 11.5 | 5.01 | 21.2 | 22.5 | > 100 | 1.3 | 3.53 | 3.07 | 10.3 | – | – | 3.28 | 14.2
22 | C=C(C)[C@@H]1CC[C@]2(C(=O)n3ccnc3)CC[C@]3(C)[C@H](CC[C@@H]4[C@@]5(C)CCCNC(C)(C)[C@@H]5CC[C@]43C)[C@@H]12 | 1.74 | 4.1 | 2.23 | 4.8 | 1.26 | 2.64 | 1.78 | 3.3 | 2.08 | 5.08 | 2.07 | 3.88 | 1.38 | 2.72 | 1.62 | 3.05 | 1.49 | 2.96 | – | –
23 | CN1CCOCCOCCOc2ccccc2NC(=O)c2nc(cnc2N)-c2ccc(cc2)S1(=O)=O | 60.2 | > 100 | 59.9 | > 100 | – | – | 32.4 | > 100 | 3.56 | > 100 | 7.1 | > 100 | – | – | – | – | – | – | – | –
24 | CCOC(=O)[C@@H]1C[C@@H]1c1ccc(O)c(O)c1 | – | > 100 | – | 97.4 | – | > 100 | – | 27.8 | – | > 100 | – | 52.2 | – | 60.9 | – | – | – | > 100 | – | 68.8
